In experiment [1] the test system is E. coli. Nature of the experiment: Staining E. coli culture with different nucleic acid dyes, flow cytometer counts (FL1FL2 region). The experiment is classed as cell-based, Escherichia coli. On the procedure:
First, an experiment was performed to confirm that bacterial counts obtained on the flow cytometer using GelGreen™ did correlate with traditional plate counts. For this, the Petrifilm method was selected (Standard Methods for Examination of Dairy Products 17th Edition 2004. Edited by H. M. Wehr and J. R. Frank. American Public Health Association, 800 I Street, NW, Washington D.C. 200001. Chapter 6.040), rather than a poured agar plate method, because of ease of use. Escherichia coil (E. coli) cultures were grown at 36° C. in Trypticase Soy Broth (TSB) in a culture tube. A staining composition was prepared as follows: The nucleic acid dye GelGreen™ (from Biotium) was diluted to 1× from the 10,000× commercially available stock, into Tris-buffered saline (100 mM Trizma base, 100 mM Trizma HCl, 150 mM NaCl, pH 8.5), which was preheated to 50° C. The used dilution of 1:10,000 of the GelGreen™ is in accordance with the manufacturer's recommendation for using GelGreen™ for the purpose it was intended for, namely staining DNA in an agarose gel. This is the dilution of GelGreen™ used in all the examples herein. The E. coli culture was removed from the 36° C. incubator and a small volume was diluted 1:100 into the preheated staining composition and incubated for approximately 4.5 min at 50° C. The stained E. coli was analyzed on the flow cytometer and the FL1 (Bandpass 531 nm (519-551)) and FL2 (Long pass >550 nm) fluorescence channels were used to identify the stained bacteria (FIGS. 1A and 1C). A rectangular region was defined around the positively stained cells identified as live cells in the FL1 versus FL2 2-dimensional correlation plot (FIG. 1B). A count per mL of the E. coli was obtained from the flow cytometry analysis. The E. coli culture was then diluted in TSB to obtain 3 different concentrations (1:10, 1:100 and 1:1000, respectively). The E. coli cultures were kept at 4° C. to minimize further growth until analysis. Each dilution of E. coli was stained with the GelGreen™ reagent, analyzed on the flow cytometer and counts for each dilution were obtained. Each E. coli culture was also appropriately diluted in Butterfield's PBS and 1 mL of the appropriately diluted culture was plated on Petrifilms in duplicate. The Petrifilms were placed in a 30° C. incubator, removed after 48 hrs and the colonies on each Petrifilm were counted using an automated colony counter. An average CFU/mL for each E. coli dilution was obtained. The Log of the flow cytometer bacterial counts using GelGreen™ was plotted versus the Log CFU counts from the Petrifilm (FIG. 2).
To show where the bacteria in the FL1 and FL2 signal plots can be expected, bacteria were first counted in the staining composition without adding any milk. A culture of E. coli were grown at 36° C. in Trypticase Soy Broth (TSB) in a culture tube. The nucleic acid dye GelGreen™ was diluted into Tris-buffered saline, at approximately pH 8.5, which was preheated to 50° C. The E. coli culture was removed from the 36° C. incubator and a small volume was diluted 1:100 into the preheated staining composition and incubated for approximately 4.5 min at 50° C. The stained E. coli was analyzed on the flow cytometer and the FL1 and FL2 fluorescence channels were used to identify the stained bacteria (FIG. 3A).
A culture of E. coli was grown at 36° C. in Trypticase Soy Broth (TSB), stained with GelGreen™ and counted on the flow cytometer (FIG. 5) as described in example 2. The E. coli culture was then kept at 4° C. until stained with other nucleic acid dyes. The nucleic acid dyes TOTO®-1 and SYBR® Safe (both from Thermo Fisher Scientific) were selected as alternatives. […] Both dyes have similar spectral properties to GelGreen™ and were diluted in Tris-buffered saline using the same dilution factor as GelGreen™. […]
A general note: A flow cytometer gives signals particle by particle.

Experiment [2] concerns E. coli. Nature of the experiment: Validation of flow cytometer bacterial counts versus Petrifilm CFU counts, E. coli cultures. Particulars: Tris-buffered saline pH 8.5, 50° C. The experiment is classed as cell-based, Escherichia coli. The procedure:
First, an experiment was performed to confirm that bacterial counts obtained on the flow cytometer using GelGreen™ did correlate with traditional plate counts. For this, the Petrifilm method was selected (Standard Methods for Examination of Dairy Products 17th Edition 2004. Edited by H. M. Wehr and J. R. Frank. American Public Health Association, 800 I Street, NW, Washington D.C. 200001. Chapter 6.040), rather than a poured agar plate method, because of ease of use. Escherichia coil (E. coli) cultures were grown at 36° C. in Trypticase Soy Broth (TSB) in a culture tube. A staining composition was prepared as follows: The nucleic acid dye GelGreen™ (from Biotium) was diluted to 1× from the 10,000× commercially available stock, into Tris-buffered saline (100 mM Trizma base, 100 mM Trizma HCl, 150 mM NaCl, pH 8.5), which was preheated to 50° C. […] The stained E. coli was analyzed on the flow cytometer and the FL1 (Bandpass 531 nm (519-551)) and FL2 (Long pass >550 nm) fluorescence channels were used to identify the stained bacteria (FIGS. 1A and 1C). […] Each dilution of E. coli was stained with the GelGreen™ reagent, analyzed on the flow cytometer and counts for each dilution were obtained. […] The Petrifilms were placed in a 30° C. incubator, removed after 48 hrs and the colonies on each Petrifilm were counted using an automated colony counter. […]

Experiment [3] has as its system Listeria monocytogenes, Staphylococcus aureus, Bacillus cereus, Pseudomonas aeruginosa, Escherichia coil. Nature of the experiment: Validation of flow cytometry counts versus Petrifilm CFU in raw milk spiked with gram positive and gram negative bacteria. The format is cell-based. Particulars: raw milk with individual bacterial cultures. The source says: A selection of gram negative and gram positive bacteria were chosen to be placed into raw milk and processed and analyzed following the GelGreen™ raw milk treatment staining protocol as disclosed in example 2. The gram positive organisms selected were Listeria monocytogenes (Lm), Staphylococcus aureus (Sa), and Bacillus cereus (Bc). The gram negative organisms selected were Pseudomonas aeruginosa (Pa) and Escherichia coil (Ec). Different concentrations of each culture were placed into a sample of raw milk and kept at 4° C. until processed. Each sample of raw milk with an individual bacterial culture was processed and analyzed following the GelGreen™ protocol as described in example 2. Each sample of raw milk with an individual bacterial culture was appropriately diluted in Butterfield's PBS and 1 mL was plated on Petrifilms in duplicate and CFU/mL were obtained. The resulting Log FCM counts per mL were plotted against the Log Petrifilm CFU per mL.

“Also recorded” adds a separate entry of the source.

As for `CN(C)c1ccc2cc3ccc(N(C)C)cc3[n+](CCCCCC(=O)NCCCOCCOCCOCCCNC(=O)CCCCC[n+]3c4cc(N(C)C)ccc4cc4ccc(N(C)C)cc43)c2c1.[I-].[I-]` [GelGreen™], the “staining of E. coli” value in the experiment on E. coli [1] (NaCl solution (saline), 50° C.) is on record as “minimal staining”; with E. coli [1] (NaCl solution (saline), room temperature (23° C.)), “does not stain E. coli; also recorded: did not stain bacterial cells”; in the experiment with E. coli [1] (Tris-buffered saline pH 8.5, 50° C., approximately 4.5 min), “stains essentially all bacterial cells”; in the experiment on E. coli [1] (Tris-buffered saline pH 8.5, room temperature (23° C.)), “does not stain E. coli; also recorded: did not stain bacterial cells”. Also, the “relationship of Log flow cytometer bacterial counts versus Log CFU counts from Petrifilm” value in the experiment with E. coli [2] is listed as “clear linear relationship”. Also, in experiment [3], the “relationship of Log FCM counts per mL versus Log Petrifilm CFU per mL” value is given as “overall linear relationship”.

The values above are taken from patent US11415493B2, “Detection of cells in a liquid sample” (DELTA INSTRUMENTS B.V., priority 2016, dated 2022).
